{
  "source": "paper PMC12040169",
  "about": "(PLOS Biology, 2025)",
  "data": [
    {"test": "in vitro", "conditions": "human, hela cells, % viability", "units": {"viability at 28.5 h, 10 µM": "%"}, "values": [
      {"smiles": "CCC(C)(NC=O)C(=O)Nc1ccccc1C(=O)O", "note": "(stereo not drawn) [CBK287177]", "viability at 28.5 h, 10 µM": 97},
      {"smiles": "O=C(c1cccc(-c2nnc(-c3ccccc3)o2)c1)N1CCN(C(=O)c2ccco2)CC1", "note": "[CBK269809]", "viability at 28.5 h, 10 µM": 78.5},
      {"smiles": "Cc1cc(COc2nc3ccccc3nc2NCCC(C)O)no1", "note": "(stereo not drawn) [CBK173999]", "viability at 28.5 h, 10 µM": 95.7},
      {"smiles": "CCCNC(=O)Cn1nc(CC)n2c(cc3sccc32)c1=O", "note": "[CBK284030]", "viability at 28.5 h, 10 µM": 89.3},
      {"smiles": "COC(=O)c1cn(-c2ccc(Cl)cc2)c(=O)c2ccccc12", "note": "[CBK116489]", "viability at 28.5 h, 10 µM": 101},
      {"smiles": "O=C(NCCN1CCCCC1)C1CC(=O)N(Cc2ccco2)C1", "note": "(stereo not drawn) [CBK304877]", "viability at 28.5 h, 10 µM": 89.8},
      {"smiles": "CC(=O)Nc1ccc(S(=O)(=O)N2CCN(c3cc4[nH]c(=O)[nH]c4cc3[N+](=O)[O-])CC2)cc1", "note": "[CBK267013]", "viability at 28.5 h, 10 µM": 97.7},
      {"smiles": "O=C(NCc1ccccn1)C1CCN(S(=O)(=O)c2ccc(Cl)cc2)CC1", "note": "[CBK264959]", "viability at 28.5 h, 10 µM": 90.2},
      {"smiles": "Cc1nc(-c2ccccc2)sc1CNC(=O)/C=C/c1c[nH]cn1", "note": "[CBK092368]", "viability at 28.5 h, 10 µM": 83.3},
      {"smiles": "CC(CNC(=O)c1cncc(Br)c1)NC(=O)c1cncc(Br)c1", "note": "(stereo not drawn) [CBK262040]", "viability at 28.5 h, 10 µM": 91.6},
      {"smiles": "O=C(Nc1nnc(-c2ccccn2)o1)c1cc(Cl)ccc1Cl", "note": "[CBK287429]", "viability at 28.5 h, 10 µM": 96.9},
      {"smiles": "CCN(Cc1ccncc1)C(=O)NCCCN1CCN(C)CC1", "note": "[CBK155123]", "viability at 28.5 h, 10 µM": 108},
      {"smiles": "Cn1c(O)c(CCNc2cc([C@H]3C[C@@H](O)C3)nc(N)n2)cnc1=O", "note": "[CBK306956]", "viability at 28.5 h, 10 µM": 104},
      {"smiles": "O=P(O)(CCc1ccccn1)CN1CCCCC1", "note": "[CBK262312]", "viability at 28.5 h, 10 µM": 97.2},
      {"smiles": "Cc1ccccc1OCC(O)Cn1c(=N)n(CCN2CCCCC2)c2ccccc21", "note": "(stereo not drawn) [CBK266698C]", "viability at 28.5 h, 10 µM": 98.1},
      {"smiles": "Cc1ccccc1Sc1ncccc1C(F)(F)F", "note": "[CBK115231]", "viability at 28.5 h, 10 µM": 104},
      {"smiles": "CCCCOC(=O)CCNc1n[nH]c(=O)[nH]c1=O", "note": "[CBK027838]", "viability at 28.5 h, 10 µM": 97.3},
      {"smiles": "CC1CCN(CC(CS(=O)(=O)c2ccc([N+](=O)[O-])cc2)N2CCC(C)CC2)CC1", "note": "(stereo not drawn) [CBK267506]", "viability at 28.5 h, 10 µM": 86.2},
      {"smiles": "Cc1ccc(-c2ncc(OCc3cccs3)nc2N)cc1C", "note": "[CBK145146]", "viability at 28.5 h, 10 µM": 101},
      {"smiles": "Cc1ccc(Cl)cc1-n1cc(-c2ccc(F)cc2)nn1", "note": "[CBK113128]", "viability at 28.5 h, 10 µM": 98.9},
      {"smiles": "O=C(O)CC1c2ccccc2Oc2ccccc21", "note": "[CBK261836]", "viability at 28.5 h, 10 µM": 92},
      {"smiles": "Cc1nc2c(c(=O)[nH]1)CN(Cc1ccc(F)cc1)CC2", "note": "[CBK284009]", "viability at 28.5 h, 10 µM": 86.9},
      {"smiles": "O=C(Nc1[nH]nc(O)c1Cc1c(Cl)cccc1Cl)C1CCCCC1", "note": "[CBK084558]", "viability at 28.5 h, 10 µM": 92.9},
      {"smiles": "CS(=O)(=O)NC1CCN(C2CCc3c(Cl)cccc32)CC1", "note": "(stereo not drawn) [CBK305252]", "viability at 28.5 h, 10 µM": 93.7},
      {"smiles": "COC(=O)c1ccsc1NS(=O)(=O)c1ccc(F)cc1", "note": "[CBK039060]", "viability at 28.5 h, 10 µM": 89.7},
      {"smiles": "NS(=O)(=O)c1ccc(CN2CCCC2=O)cc1", "note": "[CBK288420]", "viability at 28.5 h, 10 µM": 108},
      {"smiles": "COc1ccc(NC(=O)c2cnccn2)c(OC)c1", "note": "[CBK262240]", "viability at 28.5 h, 10 µM": 105},
      {"smiles": "CCNC(Cc1ccc2ccccc2c1)C(=O)OC", "note": "(stereo not drawn) [CBK071702]", "viability at 28.5 h, 10 µM": 109},
      {"smiles": "Cn1ncc2c(=O)n(Cc3nnsc3Cl)cnc21", "note": "[CBK237374]", "viability at 28.5 h, 10 µM": 102},
      {"smiles": "COC(=O)c1c(N=C(S)NN2CCN(C)CC2)sc2c1CCC(C)C2", "note": "(stereo not drawn) [CBK267125]", "viability at 28.5 h, 10 µM": 83.9},
      {"smiles": "O=S(=O)(NCc1cccnc1)N1CCOCC1", "note": "[CBK269945]", "viability at 28.5 h, 10 µM": 85.1},
      {"smiles": "O=C(O)CCSc1c[nH]c2ccccc12", "note": "[CBK262319]", "viability at 28.5 h, 10 µM": 94.5},
      {"smiles": "Nc1ncc(-c2ccc(C(=O)N3CCOCC3)cc2)nc1-c1ccc(CCC(=O)O)cc1", "note": "[CBK126368]", "viability at 28.5 h, 10 µM": 97.3},
      {"smiles": "COc1ccc(NC(=O)Nc2ccccc2C(N)=O)cc1OC", "note": "[CBK267061]", "viability at 28.5 h, 10 µM": 94.1},
      {"smiles": "Cn1c(CSCc2ccccc2)nnc1SCC(=O)c1ccc(Br)cc1", "note": "[CBK266565]", "viability at 28.5 h, 10 µM": 94.9},
      {"smiles": "COc1ccccc1N1CCN(C(=O)c2ccc3c(c2)no[n+]3[O-])CC1", "note": "[CBK091510]", "viability at 28.5 h, 10 µM": 85},
      {"smiles": "O=C(NCC1CCCN1)c1cc2cc(Cl)ccc2[nH]1", "note": "(stereo not drawn) [CBK115917C]", "viability at 28.5 h, 10 µM": 104},
      {"smiles": "CCOC(=O)c1c(NC(=O)CSc2nc[nH]n2)sc2c1CCC2", "note": "[CBK267225]", "viability at 28.5 h, 10 µM": 94.5},
      {"smiles": "CN1CCN(c2ccc([N+](=O)[O-])cc2/C=N/NC(=O)CCc2ccccc2O)CC1", "note": "[CBK263281]", "viability at 28.5 h, 10 µM": 97.7},
      {"smiles": "Cc1nc2c(-c3cccs3)c(C)nn2c(O)c1C", "note": "[CBK283728]", "viability at 28.5 h, 10 µM": 99.9},
      {"smiles": "COc1cc(NC(=O)NC(=O)C2CCN(C(C)=O)CC2)cc(OC)c1OC", "note": "[CBK034831]", "viability at 28.5 h, 10 µM": 114},
      {"smiles": "Cc1cc(OC(F)(F)F)ccc1NS(=O)(=O)c1ccc(-c2ccon2)s1", "note": "[CBK062361]", "viability at 28.5 h, 10 µM": 86.7},
      {"smiles": "CNC(=O)c1cccc(NC(=O)c2cc(Br)cnc2NCC2CC2)c1", "note": "[CBK076380]", "viability at 28.5 h, 10 µM": 95.5},
      {"smiles": "O=C(NC(=S)Nc1cccc(-c2nc3ccccc3s2)c1)c1cc([N+](=O)[O-])ccc1N1CCOCC1", "note": "[CBK268789]", "viability at 28.5 h, 10 µM": 103},
      {"smiles": "O=C(NCC(O)c1ccc(O)cc1)c1cnc(-c2ccc(Cl)cc2)c(-c2cccnc2)c1", "note": "(stereo not drawn) [CBK036656]", "viability at 28.5 h, 10 µM": 92.5},
      {"smiles": "OCCn1nc(C2CCCC2)nc1CCc1c[nH]c2ccccc12", "note": "[CBK307509]", "viability at 28.5 h, 10 µM": 85.1},
      {"smiles": "COc1cccc(CN2CCCC(NC(=O)c3csc(C(C)=O)c3)C2)c1", "note": "(stereo not drawn) [CBK307297]", "viability at 28.5 h, 10 µM": 87.6},
      {"smiles": "O=C(O)CSc1nc2nc3c(cc2c(=O)n1Cc1ccccc1)CCCC3", "note": "[CBK286662]", "viability at 28.5 h, 10 µM": 86.4},
      {"smiles": "O=C(Nc1ccc(F)cc1)c1ccccc1NS(=O)(=O)c1ccc(Br)cc1", "note": "[CBK045438]", "viability at 28.5 h, 10 µM": 100},
      {"smiles": "O=C(Nc1ccccc1-c1nc2ccccc2[nH]1)c1ccncc1", "note": "[CBK270148]", "viability at 28.5 h, 10 µM": 94.5},
      {"smiles": "Cc1ccc2cc(COC(=O)c3ccc(N4CCOCC4)nc3)c(Cl)nc2c1", "note": "[CBK295336]", "viability at 28.5 h, 10 µM": 90.5},
      {"smiles": "FC(F)(F)c1nc2ccccc2nc1SCc1ccccc1", "note": "[CBK103732]", "viability at 28.5 h, 10 µM": 87},
      {"smiles": "CCOC(=O)CNC1CCCCC1", "note": "[CBK023276C]", "viability at 28.5 h, 10 µM": 91},
      {"smiles": "COc1ccc(CCN2CCC(Oc3nccnc3OCCN3C(=O)CCC3=O)CC2)cc1OC", "note": "[CBK084359]", "viability at 28.5 h, 10 µM": 109},
      {"smiles": "CCC#CC(=O)Nc1ccccc1N1CCCNCC1", "note": "[CBK024291T]", "viability at 28.5 h, 10 µM": 98.5},
      {"smiles": "CCN(CCc1nc2cc(OC)ccc2[nH]1)C(=O)c1ccc(=O)n(C)c1", "note": "[CBK307312]", "viability at 28.5 h, 10 µM": 77},
      {"smiles": "CSCCC(=O)N1CCN(C(=O)c2ccco2)CC1", "note": "[CBK144468]", "viability at 28.5 h, 10 µM": 93.5},
      {"smiles": "O=S(=O)(c1ccc2c(c1)nc1n2CCC1)N1CCOCC1", "note": "[CBK019200]", "viability at 28.5 h, 10 µM": 49.6},
      {"smiles": "CC(=O)Nc1cccc(-n2cnnc2SCC2CCCCC2)c1", "note": "[CBK305054]", "viability at 28.5 h, 10 µM": 96.2},
      {"smiles": "CSc1nc(NC(=O)CCCc2ccccc2)cc(N2CCNCC2)n1", "note": "[CBK050258T]", "viability at 28.5 h, 10 µM": 111},
      {"smiles": "CCOc1ccc(CCC(=O)N2CCCc3c(cnn3C)C2)cc1", "note": "[CBK285276]", "viability at 28.5 h, 10 µM": 85.8},
      {"smiles": "CCC(CO)Nc1nccnc1-c1cccc(C(=O)N2CCN(C)CC2)c1", "note": "(stereo not drawn) [CBK037087]", "viability at 28.5 h, 10 µM": 92.6},
      {"smiles": "Cn1c(=O)n(CC(=O)NCc2ccccc2F)c2cccnc21", "note": "[CBK283909]", "viability at 28.5 h, 10 µM": 88.1},
      {"smiles": "O=c1c2ccccc2nc(S)n1CC(O)c1ccccc1", "note": "(stereo not drawn) [CBK288386]", "viability at 28.5 h, 10 µM": 85.8},
      {"smiles": "CCOC(=O)C(C)n1nc(C)n2c(cc3sccc32)c1=O", "note": "(stereo not drawn) [CBK283333]", "viability at 28.5 h, 10 µM": 67}
    ]},
    {"test": "in vitro", "conditions": "human, hela cells, % viability, bulk resorufin, single well", "units": {"viability at 28.5 h, 10 µM": "%"}, "values": [
      {"smiles": "COc1cc(/C=C2/C(=O)NC(=O)N(c3ccccc3)C2=O)cc(Cl)c1O", "note": "[CBK263361]", "viability at 28.5 h, 10 µM": 93.3}
    ]}
  ]
}
